Data taken from the CheMixHub ionic liquid set.

Test: xn = mol fraction of the nth substance listed

CCCCCCCCn1cc[n+](C)c1.F[B-](F)(F)F + CCOC(C)=O
298.15 K, 101 kPa
Conditions	viscosity [mPa·s]
x2 = 0.204	115.5
x2 = 0.3986	41.35
x2 = 0.4461	31.64
x2 = 0.5984	12.72
x2 = 0.624	10.93
x2 = 0.8017	3.1
x2 = 0.953	0.74

C1CCC2=NCCCN2CC1 + O=S(=O)([N-]S(=O)(=O)C(F)(F)F)C(F)(F)F.[Li+]
101 kPa, frequency 0 MHz, x1 = 0.8
Conditions	electrical conductivity [S/m]
328.15 K	0.00259
338.15 K	0.00474
348.15 K	0.0114

101 kPa, x1 = 0.8
Conditions	viscosity [mPa·s]
328.15 K	3336
348.15 K	358

CCCCCCCCCCCCCC[P+](CCCCCC)(CCCCCC)CCCCCC.O=S(=O)([N-]S(=O)(=O)C(F)(F)F)C(F)(F)F + CCCCCC[n+]1ccn(C)c1.O=S(=O)([N-]S(=O)(=O)C(F)(F)F)C(F)(F)F
100 kPa
Conditions	viscosity [mPa·s]
278.15 K, x2 = 0.404	870
283.15 K, x2 = 0.097	770

CCCCCCCCn1cc[n+](C)c1.F[B-](F)(F)F + CCO
Conditions	viscosity [mPa·s]
283.15 K, 101 kPa, x2 = 0.081	720

O=C(O)CO + CC[N+](CC)(CC)CC.[Cl-]
101 kPa, x1 = 0.6667
Conditions	viscosity [mPa·s]
303.15 K	268
323.15 K	87
353.15 K	27

N#C[N-]S(=O)(=O)C(F)(F)F.[Li+] + CCCC[N+]1(C)CCCC1.N#C[N-]S(=O)(=O)C(F)(F)F
101 kPa, frequency 0 MHz
Conditions	electrical conductivity [S/m]
303 K, x1 = 0.1	0.295
318 K, x1 = 0.2	0.194
323 K, x1 = 0.05	0.706
323 K, x1 = 0.1	0.558

101 kPa
Conditions	viscosity [mPa·s]
303 K, x1 = 0.1	89.5
318 K, x1 = 0.2	150
323 K, x1 = 0.05	30.3
323 K, x1 = 0.1	43.5
328 K, x1 = 0.1	34.6

CC(C)O + CC[n+]1ccn(CCOC)c1.N#C[S-]
100 kPa, x2 = 0
Conditions	viscosity [mPa·s]
288.15 K	2.83
293.15 K	2.42
298.15 K	2.07
303.15 K	1.79
308.15 K	1.552
313.15 K	1.352
318.15 K	1.183

FC(F)C(F)(F)OCC(F)(F)C(F)(F)C(F)(F)C(F)F + CCCC[N+]1(C)CCCC1.FC(F)(F)C(F)(F)[P-](F)(F)(F)(C(F)(F)C(F)(F)F)C(F)(F)C(F)(F)F
101 kPa
Conditions	electrical conductivity [S/m]	viscosity [mPa·s]
298.1 K, x2 = 0	–	2.5
298.1 K, x2 = 0.12	0.18	–
298.1 K, x2 = 0.191	–	7.43
298.1 K, x2 = 0.194	0.257	–
298.1 K, x2 = 0.272	0.28	–
298.1 K, x2 = 0.363	0.306	–
298.1 K, x2 = 0.454	0.291	–
298.1 K, x2 = 0.456	–	25.4
298.1 K, x2 = 0.564	0.241	–
298.1 K, x2 = 0.694	0.182	65.6
298.1 K, x2 = 0.847	–	117.9
298.1 K, x2 = 0.853	0.161	–
303 K, x2 = 0.12	0.199	–
303 K, x2 = 0.123	–	4.63
303 K, x2 = 0.194	0.29	–
303 K, x2 = 0.269	0.32	–
303 K, x2 = 0.359	0.35	–
303 K, x2 = 0.361	–	14.13
303 K, x2 = 0.457	0.335	–
303 K, x2 = 0.567	0.288	32.7
303 K, x2 = 0.694	0.23	–
303 K, x2 = 0.847	–	91.9
303 K, x2 = 0.85	0.198	–
308.1 K, x2 = 0	–	2.12
308.1 K, x2 = 0.123	0.217	–
308.1 K, x2 = 0.191	0.32	–
308.1 K, x2 = 0.272	0.36	–
308.1 K, x2 = 0.273	–	8.09
308.1 K, x2 = 0.366	0.401	–
308.1 K, x2 = 0.456	–	17.2
308.1 K, x2 = 0.463	0.39	–
308.1 K, x2 = 0.564	0.343	–
308.1 K, x2 = 0.691	0.27	–
308.1 K, x2 = 0.847	0.234	71.6
313 K, x2 = 0.058	–	2.88
313 K, x2 = 0.123	0.239	–
313 K, x2 = 0.197	0.356	–
313 K, x2 = 0.272	0.412	–
313 K, x2 = 0.359	0.449	–
313 K, x2 = 0.361	–	11.01
313 K, x2 = 0.46	0.442	–
313 K, x2 = 0.57	0.387	–
313 K, x2 = 0.691	0.322	–
313 K, x2 = 0.694	–	33.7
313 K, x2 = 0.847	–	60.6
313 K, x2 = 0.85	0.289	–
318.1 K, x2 = 0	–	1.65
318.1 K, x2 = 0.12	–	3.41
318.1 K, x2 = 0.123	0.261	–
318.1 K, x2 = 0.194	0.389	–
318.1 K, x2 = 0.271	0.452	–
318.1 K, x2 = 0.362	0.5	–
318.1 K, x2 = 0.45	0.504	–
318.1 K, x2 = 0.456	–	13.04
318.1 K, x2 = 0.567	0.449	–
318.1 K, x2 = 0.69	0.373	–
318.1 K, x2 = 0.691	–	27.8
318.1 K, x2 = 0.844	–	49.9
318.1 K, x2 = 0.846	0.337	–
323 K, x2 = 0	–	1.52
323 K, x2 = 0.119	0.283	–
323 K, x2 = 0.19	0.43	–
323 K, x2 = 0.195	–	4.04
323 K, x2 = 0.271	0.5	–
323 K, x2 = 0.358	–	7.89
323 K, x2 = 0.359	0.558	–
323 K, x2 = 0.453	0.566	–
323 K, x2 = 0.563	0.508	–
323 K, x2 = 0.567	–	15.44
323 K, x2 = 0.69	0.424	–
323 K, x2 = 0.846	0.392	–
323 K, x2 = 0.848	–	40
